From patent US12492174B2, “Morpholine-3-carboxamide derivatives as prostaglandin E2 receptor 4 (EP4) agonists for the treatment of gastrointestinal and pulmonary diseases” (NXERA PHARMA UK LIMITED, priority 2022, dated 2025)

How the values were obtained:
human EP4 = biological target: T1, human EP4 (Homo sapiens, UniProt P35408); assay: cAMP Gs functional assay (HTRF cAMP dynamic-2); format: cell-based; conditions: for Emax: HEK293, HEK293 cells transfected with EP4 Bacmam virus, positive control 10 uM PGE2; for EC50: HEK293 cells transfected with EP4 Bacmam virus, 30 mins at 37° C., −Log of the molarity (M), read-out: cAMP human EP4 pEC50 (converted)
T1 construct: expressed in transfected cells; host or cells: HEK293 cells transduced with EP4 BacMam virus
T1 sequence (P35408 whole entry): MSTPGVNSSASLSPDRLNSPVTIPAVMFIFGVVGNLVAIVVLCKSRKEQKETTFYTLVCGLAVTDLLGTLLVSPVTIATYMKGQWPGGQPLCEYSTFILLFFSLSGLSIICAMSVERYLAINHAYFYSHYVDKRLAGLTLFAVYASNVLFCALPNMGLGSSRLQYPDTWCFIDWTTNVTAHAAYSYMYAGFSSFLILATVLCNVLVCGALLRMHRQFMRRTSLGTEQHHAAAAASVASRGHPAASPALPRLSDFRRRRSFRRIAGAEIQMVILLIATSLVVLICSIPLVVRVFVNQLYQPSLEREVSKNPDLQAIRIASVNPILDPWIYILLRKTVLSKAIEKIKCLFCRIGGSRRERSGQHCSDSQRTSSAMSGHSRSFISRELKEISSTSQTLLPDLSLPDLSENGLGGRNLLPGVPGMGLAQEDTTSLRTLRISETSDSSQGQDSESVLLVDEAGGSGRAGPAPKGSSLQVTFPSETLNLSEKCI
Procedure: Cloning, Baculovirus generation, large scale infection of HEK293 cells and membrane preparation: Human prostaglandin E2 receptor 4 (EP4) was cloned into pBacMam expression vector (GeneScript, UK). Transposition of EP4 DNA was performed using Invitrogen's Bac-to-Bac Baculovirus Expression Systems. P0 baculovirus was generated by transfecting SF9 Cells with bacmid DNA using Cellfectin II transfection reagent (ThermoFisher Scientific, UK). Following P0 generation P1 virus was then generated ready for large scale infection and membrane preparation. HEK293 cells were grown in DMEM (ThermoFisher Scientific, UK), supplemented with 10% heat inactivated fetal bovine serum (FBS). Cells were infected at a seeding density of 3.5 million cells/mL in 500 cm^3 flasks at 5% v/v EP4 Bacman. Expression was carried out over a 36 hr period at 37° C. with 5% CO2. The cells were removed using PBS and a cell scrapper. The cell culture was centrifuged at 2500 RPM for 10 mins at 4° C. The supernatant was then poured off and the pellet stored at −80° C. The pellet was defrosted and re-suspended in 15 mL of homogenising buffer (20 mM HEPES, 10 mM EDTA, pH 7.4). Then homogenised in mechanical homogeniser (VMR) for 10 seconds. The membrane was centrifuged in centrifuge tubes at 40,000 g for 15 mins at 4° C. The supernatant was poured away and re-suspended in 15 mL of homogenising buffer. Homogenised for 20 seconds. The membrane was centrifuged at 40,000 g for 45 mins at 4° C. The membrane was re-suspended in 3 mL of storage buffer (20 mM HEPES, 0.1 mM EDTA, pH 7.4) mixing well. The resulting membranes were then stored at −80° C.
cAMP Gs Functional Assay: cAMP production following EP4 receptor activation was determined using the Homogeneous Time-Resolved Fluorescence (HTRF) cAMP dynamic-2 assay (Cisbio, France). HEK293 cells were transfected using a 0.5% EP4 Bacmam virus for 36 hours, before dissociating the cells, and freezing at −150° C.
On the day of testing, increasing concentration of test compounds, alongside positive controls (10 uM PGE2 (Tocris, Abingdon, UK)) and negative control (DMSO (Sigma-Aldrich, UK) were added to a ProxiPlate-384 Plus, White 384-shallow well Mircoplate, (PerkinElmer, USA) using the ECHO dispense.
Cells were defrosted in a water bath and resuspended in DMEM supplemented with 10% FBS before centrifuging at 1200 RPM for 5 mins to form a pellet. The pellet was resuspended in assay buffer (DMEM+0.5 mM IBMX (Tocris, Abingdon, UK)) to 0.5×10^6 cells/mL. Cell suspension, for a final assay concentration of 5000 cell/well was added using the multidrop to the pre-dispensed assay plate. The plate was then incubated at 37° C. for 30 mins, with 5% CO2. The cAMP production was determined as manufacturer's instructions, before plates were read on a PheraStar fluorescence plate reader (BMG LabTech, Germany).
The pEC50 values (−Log of the molarity (M) in mol/liter) were calculated from the mid-point of the curve using dotmatics as shown in Table 3.

[1] = Unidirectional Caco-2 cell permeability assay; format: in vitro ADME; conditions: human, n=2, apical pH 6.5, basolateral pH 7.4, 1 hour, 37° C.
Procedure: Caco-2 cells (ECACC) were seeded onto 24-well Transwell plates at 2×10^5 cells per well and used in confluent monolayers after a 21 day culture at 37° C. under 5% CO2. Test compounds were incubated at 10 μM, 0.2% DMSO final, n=2 in assay buffer (Hanks balanced salt solution supplemented with 25 mM HEPES, adjusted to pH 6.5). Hanks balanced salt solution supplemented with 25 mM HEPES, adjusted to pH 7.4 (0.2% DMSO final) was used for the basolateral chamber (as receiver).
Incubations were performed at 37° C., with samples removed from both donor and acceptor chambers at T=0 and 1 hour and compound analysed by mass spectrometry (LC-MS/MS) including an analytical internal standard (0.5 μM carbamazepine).
Apparent permeability (Papp) values are shown in Table 4 and were determined from the relationship:
Where V is the volume of each Transwell compartment (apical 125 μL, basolateral 600 μL), and concentrations are the relative MS responses for compound (normalized to internal standard) in the donor chamber before incubation and acceptor chamber at the end of the incubation Area=area of cells exposed for drug transfer (0.33 cm^2).
Lucifer Yellow (LY) was added to the apical buffer in all wells to assess viability of the cell layer. As LY cannot freely permeate lipophilic barriers, a high degree of LY transport indicates poor integrity of the cell layer and wells with a LY Papp>10×10^−6 cm/s were rejected.
Compound recovery from the wells was determined from MS responses (normalized to internal standard) in donor and acceptor chambers at the end of incubation compared to response in the donor chamber pre-incubation.

Emax (human EP4) [%] | EC50 (human EP4) [M] | Papp A→B at 1 h, 10 μM [1] [×10⁻⁶ cm/s] | SMILES
98 | 3.98e-10 | < 0.1 | Cc1cc(OS(N)(=O)=O)ccc1-c1cc(O)cc(CN2CCOC[C@@H]2C(=O)N[C@@H](C)c2ccc(C(=O)O)cc2)c1 [Example 15, 4-[(1S)-1-[[(3R)-4-[[3-hydroxy-5-(2-methyl-4-sulfamoyloxy-phenyl)phenyl]methyl]morpholine-3-carbonyl]amino]ethyl]benzoic acid]
97 | 1.26e-07 | < 0.1 | Cc1cc(S(N)(=O)=O)ccc1-c1cc(CN2CCOC[C@@H]2C(=O)N[C@@H](C)c2ccc(C(=O)O)cc2)ccn1 [Example 16, 4-[(1S)-1-[[(3R)-4-[[2-(2-methyl-4-sulfamoyl-phenyl)-4-pyridyl]methyl]morpholine-3-carbonyl]amino]ethyl]benzoic acid]
98 | – | 0.12 | Cc1cc(S(N)(=O)=O)ccc1-c1ccnc(CN2CCOC[C@@H]2C(=O)N[C@@H](C)c2ccc(C(=O)O)cc2)c1 [Example 17, 4-[(1S)-1-[[(3R)-4-[[4-(2-methyl-4-sulfamoyl-phenyl)-2-pyridyl]methyl]morpholine-3-carbonyl]amino]ethyl]benzoic acid]
99 | 3.98e-10 | 0.78 | Cc1cc(C(N)=O)ccc1-c1cc(O)cc(CN2CCOC[C@@H]2C(=O)N[C@@H](C)c2ccc(C(=O)O)c(O)c2)c1 [Example 18, 4-((S)-1-((R)-4-((4′-carbamoyl-5-hydroxy-2′-methyl-[1,1′-biphenyl]-3-yl)methyl)morpholine-3-carboxamido)ethyl)-2-hydroxybenzoic acid]
99 | 1e-08 | < 0.1 | Cc1cc(C(N)=O)ccc1-c1cccc(CN2CCOC[C@@H]2C(=O)N[C@@H](C)c2ccc(C(=O)O)c(O)c2)c1 [Example 19, 4-((S)-1-((R)-4-((4′-carbamoyl-2′-methyl-[1,1′-biphenyl]-3-yl)methyl)morpholine-3-carboxamido)ethyl)-2-hydroxybenzoic acid]
99 | 1.58e-08 | < 0.1 | Cc1cc(S(N)(=O)=O)ccc1-c1cncc(CN2CCOC[C@@H]2C(=O)N[C@@H](C)c2ccc(C(=O)O)c(O)c2)c1 [Example 21, 2-hydroxy-4-((S)-1-((R)-4-((5-(2-methyl-4-sulfamoylphenyl)pyridin-3-yl)methyl)morpholine-3-carboxamido)ethyl)benzoic acid]
99 | 2.51e-10 | < 0.2 | Cc1cc(S(N)(=O)=O)ccc1-c1cc(O)cc(CN2CCOC[C@@H]2C(=O)N[C@@H](C)c2ccc(C(=O)O)c(O)c2)c1 [Example 22, 2-hydroxy-4-((S)-1-((R)-4-((5-hydroxy-2′-methyl-4′-sulfamoyl-[1,1′-biphenyl]-3-yl)methyl)morpholine-3-carboxamido)ethyl)benzoic acid]
93 | 1e-08 | 0.48 | C[C@H](NC(=O)[C@H]1COCCN1Cc1ccc(O)c(-c2ccc(C(N)=O)cc2)c1)c1ccc(C(=O)O)cc1 [Example 23, 4-[(1S)-1-[[(3R)-4-[[3-(4-carbamoylphenyl)-4-hydroxy-phenyl]methyl]morpholine-3-carbonyl]amino]ethyl]benzoic acid]
96 | 2.51e-08 | 0.26 | C[C@H](NC(=O)[C@H]1COCCN1Cc1ccc(O)c(-c2ccc(S(N)(=O)=O)cc2)c1)c1ccc(C(=O)O)cc1 [Example 24, 4-[(1S)-1-[[(3R)-4-[[4-hydroxy-3-(4-sulfamoylphenyl)phenyl]methyl]morpholine-3-carbonyl]amino]ethyl]benzoic acid]
97 | 6.31e-09 | < 0.1 | Cc1cc(S(N)(=O)=O)ccc1-c1cccc(CN2CCOC[C@@H]2C(=O)N[C@@H](C)c2ccc(C(=O)O)c(O)c2)c1 [Example 25, 2-hydroxy-4-((S)-1-((R)-4-((2′-methyl-4′-sulfamoyl-[1,1′-biphenyl]-3-yl)methyl)morpholine-3-carboxamido)ethyl)benzoic acid]
100 | – | 0.23 | Cc1cc(C(N)=O)ccc1-c1cncc(CN2CCOC[C@@H]2C(=O)N[C@@H](C)c2ccc(C(=O)O)c(O)c2)c1 [Example 28, 4-((S)-1-((R)-4-((5-(4-carbamoyl-2-methylphenyl)pyridin-3-yl)methyl)morpholine-3-carboxamido)ethyl)-2-hydroxy benzoic acid]
98 | 1.26e-10 | 0.66 | Cc1cc(C(N)=O)ccc1-c1cccc(CN2CCOC[C@@H]2C(=O)NC2(c3ccc(C(=O)O)cc3)CC2)c1 [Example 31, (R)-4-(1-(4-((4′-carbamoyl-2′-methyl-[1,1′-biphenyl]-3-yl)methyl)morpholine-3-carboxamido)cyclopropyl)benzoic acid]
91 | 6.31e-10 | 0.15 | NC(=O)c1ccc(-c2cccc(CN3CCOC[C@@H]3C(=O)NC3(c4ccc(C(=O)O)cc4)CC3)c2)c(O)c1 [Example 32, (R)-4-(1-(4-((4′-carbamoyl-2′-hydroxy-[1,1′-biphenyl]-3-yl)methyl)morpholine-3-carboxamido)cyclopropyl)benzoic acid]
93 | 3.16e-12 | 0.14 | Cc1cc(C(N)=O)ccc1-c1cc(O)cc(CN2CCOC[C@@H]2C(=O)NC2(c3ccc(C(=O)O)cc3)CC2)c1 [Example 33, (R)-4-(1-(4-((4′-carbamoyl-5-hydroxy-2′-methyl-[1,1′-biphenyl]-3-yl)methyl)morpholine-3-carboxamido)cyclopropyl)benzoic acid]
97 | 3.98e-10 | 0.39 | NC(=O)c1ccc(-c2cc(CN3CCOC[C@@H]3C(=O)NC3(c4ccc(C(=O)O)cc4)CC3)ccc2O)cc1 [Example 34, (R)-4-(1-(4-((4′-carbamoyl-6-hydroxy-[1,1′-biphenyl]-3-yl)methyl)morpholine-3-carboxamido)cyclopropyl)benzoic acid]
96 | 2.51e-10 | 0.11 | Cc1cc(C(N)=O)ccc1-c1cc(O)cc(CN2CCOC[C@@H]2C(=O)N[C@@H](C)c2ccc(-c3nnn[nH]3)cc2)c1 [Example 36, (R)—N-((S)-1-(4-(1H-tetrazol-5-yl)phenyl)ethyl)-4-((4′-carbamoyl-5-hydroxy-2′-methyl-[1,1′-biphenyl]-3-yl)methyl)morpholine-3-carboxamide]
– | > 1e-07 | < 0.1 | Cc1cc(C(N)=O)ccc1-c1cc(O)cc(CN2CCOC[C@H]2C(=O)N[C@@H](C)c2ccc(C(=O)O)cc2)c1 [Example 37, 4-((S)-1-((S)-4-((4′-carbamoyl-5-hydroxy-2′-methyl-[1,1′-biphenyl]-3-yl)methyl)morpholine-3-carboxamido)ethyl)benzoic acid]
